In assay [1] the target is Alkaline phosphatase, tissue-nonspecific isozyme (Homo sapiens) (UniProt P05186). As to the kind of experiment: Concentration required for 50% inhibition of human leukocyte alkaline phosphatase in the presence of 10 mM p-nitrophenyl phosphate as substrate.
Assay [2] shares this target. The assay is described as above. The source holds these as a separate data set.

Structures are written as SMILES.

Chain of Alkaline phosphatase, tissue-nonspecific isozyme (Homo sapiens) (P05186 whole entry, looked up): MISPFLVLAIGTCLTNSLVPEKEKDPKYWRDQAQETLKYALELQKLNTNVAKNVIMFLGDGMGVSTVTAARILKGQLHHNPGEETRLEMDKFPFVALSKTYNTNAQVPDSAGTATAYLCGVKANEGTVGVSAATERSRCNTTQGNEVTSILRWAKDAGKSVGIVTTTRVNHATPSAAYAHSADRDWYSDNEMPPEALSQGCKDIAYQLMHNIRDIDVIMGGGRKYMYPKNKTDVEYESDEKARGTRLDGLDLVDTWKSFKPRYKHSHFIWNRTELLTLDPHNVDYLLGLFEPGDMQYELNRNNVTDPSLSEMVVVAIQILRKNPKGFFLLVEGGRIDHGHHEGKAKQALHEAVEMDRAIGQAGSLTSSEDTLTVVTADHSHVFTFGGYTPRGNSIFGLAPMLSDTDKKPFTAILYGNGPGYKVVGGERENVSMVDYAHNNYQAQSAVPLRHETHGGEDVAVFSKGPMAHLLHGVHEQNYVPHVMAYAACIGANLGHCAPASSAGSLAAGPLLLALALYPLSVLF

Usually IC50 stands for the midpoint of a concentration-inhibition curve. In the case of `CCCCc1cc2c(O)cc(C(=O)O)nc2c2c(O)cc(C(=O)O)nc12`, the IC50 in assay [1] turned out to be 970 µM.
With `O=C(O)c1ccc2nc3ccc(O)cc3c(=O)n2c1`, in assay [2], the IC50 was 340 µM.
With `CCCOc1ccccc1-c1nc2nn[nH]c2c(=O)[nH]1` [5-(2-propoxyphenyl)-2H,3H,7H-[1,2,3]triazolo[4,5-d]pyrimidin-7-one], the IC50 in assay [2] stood at 1750 µM.
`O=C(O)c1cc(=O)c2c(OCC(O)COc3cccc4oc(C(=O)O)cc(=O)c34)cccc2o1` [Crolom]: the IC50 in assay [1] is 9680 µM.

These data come from BindingDB's records for doi:10.1021/jm00348a025 (1982).
